{"source": "patent US12729377B2", "about": "“RNAi agents and compositions for inhibiting expression of angiopoietin-like 3 (ANGPTL3), and methods of use” (Arrowhead Pharmaceuticals, Inc., priority 2017, dated 2026)", "key": {"ANGPTL3 gene [1]": {"system": "ANGPTL3 gene", "test": "Example 10: serum HDL in mice", "format": "in vivo", "conditions": "0.5 mg/kg single SC injection day 1, female C57bl/6 mice, n=3, ratio to D5W control", "experimental": "(§1) To assess the in vivo activity of further ANGPTL3 RNAi agents that are designed to target position 304 on the ANGPTL3 gene, six- to eight-week-old female C57bl/6 mice were used. Pre-dose serum samples were taken at day −1 after a four hour fast. At day 1, each mouse was given a single subcutaneous administration of 200 μl containing 0.5 mg/kg (mpk) of an ANGPTL3 RNAi agent in D5W (dextrose in 5% water), or control (D5W) with no RNAi agent, according to the dosing groups recited in Table 47.\n(§2) Each of the RNAi agents included a modified sequence and an N-acetyl-galactosamine-containing targeting ligand conjugated to the 5′ terminal end of the sense strand. (See Tables 3, 4, and 5 for modified sequences and targeting ligand structures). As noted above, each of the ANGPTL3 RNAi agents dosed in this study included nucleotide sequences designed to target the ANGPTL3 gene at position 304. The injections were performed between the skin and muscle (i.e. subcutaneous injections) into the loose skin over the neck and shoulder area. Three (3) mice in each group were tested (n=3). Serum was collected on days 8, 15, 22, 29, and for some groups on day 36 (i.e., Groups 1, 2, and 9-13 only). Mice were fasted for four hours prior to each collection. ANGPTL3 protein levels in serum were measured by ELISA assay (R&D Systems), according to the manufacturer's recommendations. Triglycerides, total cholesterol, high-density lipoprotein (HDL), and low-density lipoprotein (LDL) in serum were measured on a Cobas® Integra 400 (Roche Diagnostics), according to the manufacturer's recommendations.\n(§3) The ANGPTL3 protein levels, triglyceride levels, total cholesterol levels, HDL levels, and LDL levels for each animal were normalized. For normalization, the level of ANGPTL3 protein, triglyceride, HDL, and total cholesterol, respectively, for each animal at a time point, was divided by the pre-treatment level of expression in that animal (in this case at day −1) to determine the ratio of expression “normalized to pre-treatment.” Expression at a specific time point was then normalized to the D5W control group by dividing the “normalized to pre-treatment” ratio for an individual animal by the mean “normalized to pretreatment” ratio of all mice in the D5W control group."}, "ANGPTL3 gene [2]": {"system": "ANGPTL3 gene", "test": "Example 10: serum LDL in mice", "format": "in vivo, C57bl/6 mice", "conditions": "0.5 mg/kg sc", "experimental": "as §1, §2, §3"}, "ANGPTL3 gene [3]": {"system": "ANGPTL3 gene", "test": "Example 10: serum triglycerides in mice", "format": "in vivo", "conditions": "0.5 mg/kg single SC injection day 1, female C57bl/6 mice, n=3, ratio to D5W control", "experimental": "as §1, §2, §3"}, "ANGPTL3 gene [4]": {"system": "ANGPTL3 gene", "test": "Example 10: serum total cholesterol in mice", "format": "in vivo", "conditions": "0.5 mg/kg single SC injection day 1, female C57bl/6 mice, n=3, ratio to D5W control", "experimental": "as §1, §2, §3"}, "ANGPTL3 protein": {"system": "ANGPTL3 protein", "test": "Example 10: serum ANGPTL3 protein by ELISA in mice", "format": "in vivo", "conditions": "0.5 mg/kg single SC injection day 1, female C57bl/6 mice, n=3, ratio to D5W control", "experimental": "as §1, §2, §3"}}, "note": "In the oligonucleotide strings, read from the 5' end, every base follows the letter of its sugar. An asterisk marks phosphorothioate; unmarked linkages are phosphodiester. Other units and linkages are bracketed, terminal groups are in braces. A string of capitals states the bases alone. {NAG37} = N-acetyl-galactosamine tridentate targeting ligand (NAG37); [invAb] = inverted abasic unit; m = 2'-O-methyl; f = 2'-fluoro", "data": [{"substance": "AD05791: RNAi agent duplex: antisense AM07624-AS, sense AM07234-SS (antisense mU*fA*mCfUmGfAmUfCmAfAmAfUmAfUmGfUmUfGmA*fG*mC; sense {NAG37}*[invAb]*mGmCmUmCmAmAmCmAfUfAfUmUmUmGmAmUmCmAmGmUmA*[invAb])", "values": [{"measurement": "Average HDL Normalized to Pre-Treatment and Control", "setting": "ANGPTL3 gene [1]; Day 8", "result": 0.632}, {"measurement": "Average HDL Normalized to Pre-Treatment and Control", "setting": "ANGPTL3 gene [1]; Day 15", "result": 0.674}, {"measurement": "Average HDL Normalized to Pre-Treatment and Control", "setting": "ANGPTL3 gene [1]; Day 22", "result": 0.563}, {"measurement": "Average HDL Normalized to Pre-Treatment and Control", "setting": "ANGPTL3 gene [1]; Day 29", "result": 0.679}, {"measurement": "Avg LDL Normalized to Pre-Treatment and Control", "setting": "ANGPTL3 gene [2]; Day 8", "result": 0.878}, {"measurement": "Avg LDL Normalized to Pre-Treatment and Control", "setting": "ANGPTL3 gene [2]; Day 15", "result": 0.744}, {"measurement": "Avg LDL Normalized to Pre-Treatment and Control", "setting": "ANGPTL3 gene [2]; Day 22", "result": 0.848}, {"measurement": "Avg LDL Normalized to Pre-Treatment and Control", "setting": "ANGPTL3 gene [2]; Day 29", "result": 0.755}, {"measurement": "Average Triglycerides Normalized to Pre-Treatmen and Control", "setting": "ANGPTL3 gene [3]; Day 8", "result": 1.125}, {"measurement": "Average Triglycerides Normalized to Pre-Treatmen and Control", "setting": "ANGPTL3 gene [3]; Day 15", "result": 0.930}, {"measurement": "Average Triglycerides Normalized to Pre-Treatmen and Control", "setting": "ANGPTL3 gene [3]; Day 22", "result": 1.631}, {"measurement": "Average Triglycerides Normalized to Pre-Treatmen and Control", "setting": "ANGPTL3 gene [3]; Day 29", "result": 0.854}, {"measurement": "Average Total Cholesterol Normalized to Pre-Treatment and Control", "setting": "ANGPTL3 gene [4]; Day 8", "result": 0.664}, {"measurement": "Average Total Cholesterol Normalized to Pre-Treatment and Control", "setting": "ANGPTL3 gene [4]; Day 15", "result": 0.694}, {"measurement": "Average Total Cholesterol Normalized to Pre-Treatment and Control", "setting": "ANGPTL3 gene [4]; Day 22", "result": 0.631}, {"measurement": "Average Total Cholesterol Normalized to Pre-Treatment and Control", "setting": "ANGPTL3 gene [4]; Day 29", "result": 0.677}, {"measurement": "Average ANGPTL3 Protein Normalized to Pre-Treatment and Control", "setting": "ANGPTL3 protein; Day 8", "result": 0.145}, {"measurement": "Average ANGPTL3 Protein Normalized to Pre-Treatment and Control", "setting": "ANGPTL3 protein; Day 15", "result": 0.170}, {"measurement": "Average ANGPTL3 Protein Normalized to Pre-Treatment and Control", "setting": "ANGPTL3 protein; Day 22", "result": 0.214}, {"measurement": "Average ANGPTL3 Protein Normalized to Pre-Treatment and Control", "setting": "ANGPTL3 protein; Day 29", "result": 0.246}]}]}
